From article PMC6766655, “AhR–ROR-γt complex is a therapeutic target for MAP4K3/GLK^highIL-17A^high subpopulation of systemic lupus erythematosus” (The FASEB Journal, 2019)

Columns and labels:
[1] = test system: in vitro differentiated Th17 cells; experiment: IL-17A production of in vitro differentiated Th17 cells stimulated with PMA plus ionomycin (flow cytometry); assay type: cell-based, murine; conditions: 1 or 5 μM for 30 min
Method: Supplementary Figure 5. Verteporfin inhibits both Th17 differentiation and IL-17A production from in vitro differentiated Th17 cells. (A) Flow cytometry of IL-17A-producing CD4^+ T cells. Splenic T cells were co-treated with verteporfin (C1) (1 or 5 μM) during Th17 differentiation in vitro (for 3 days). (B) Flow cytometry of IL-17A-producing CD4^+ T cells. Murine in vitro differentiated Th17 cells were stimulated with PMA plus ionomycin and co-treated with verteporfin (C1) (1 or 5 μM) for 30 min. Data shown are representatives of two independent experiments.

[2] = molecular target: T1, KHS (MAP4K5) (Homo sapiens, UniProt Q9Y4K4); experiment: In vitro kinase assay, myelin basic protein as substrate (ADP-Glo); assay type: biochemical; conditions: recombinant kinase domain
T1 construct: Recombinant proteins of kinase domains of various MAP4Ks were used; purchased Promega
T1 sequence (Q9Y4K4 20-277 limits assumed): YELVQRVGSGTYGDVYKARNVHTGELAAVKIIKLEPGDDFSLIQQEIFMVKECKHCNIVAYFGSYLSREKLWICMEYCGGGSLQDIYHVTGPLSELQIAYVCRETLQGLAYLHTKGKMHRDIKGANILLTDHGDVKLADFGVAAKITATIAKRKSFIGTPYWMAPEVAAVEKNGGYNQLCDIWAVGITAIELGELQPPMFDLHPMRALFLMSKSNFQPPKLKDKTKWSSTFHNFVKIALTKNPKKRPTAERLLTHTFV

[3] = test system: GLK-induced NF-κB luciferase activity of CHO-GLK-Luc cells; experiment: Cell-based NF-κB luciferase reporter assay in GLK-transfected CHO-K1 cells; parameters: species or system Chinese hamster; conditions: stable GLK-transfected CHO-K1 cells; Fig. 3A
Method: Cell-based high‐throughput screening was conducted against a representative library of 100,000 molecules at ∼10 μM. The Chinese hamster ovary CHO-K1 (ATCC, CCL-61) cells expressing GLK and NF-κB luciferase (Luc) reporter were used. The reaction volume was 5 μl (500 cells) per well in 1536‐well plates. There was no positive control. This high‐throughput screening campaign was successful, with a determined Z' factor of 0.57 ∼ 0.60. […] At the end, 1392 compounds were identified for high inhibition (>80%) of the GLK-induced NF-κB luciferase activity of CHO‐GLK‐Luc cells. These 1392 compounds were further screened for the inhibition of GLK kinase activity by in vitro kinase assays using the kinase-dead PKC-θ protein as the substrate. From the screening, 2 potential small-molecule GLK inhibitors [half maximal inhibitory concentration (IC50) < 10 μM] were identified.
Figure 3 Verteporfin (C1) blocks the AhR–ROR-γt complex in human autoimmune T cells. A) Luciferase activity of NF-κB–driven reporter assays in stable GLK-transfected CHO-K1 cells that were treated with or without C1 under the indicated concentration. The fold changes are presented relative to the value of vector control. […] D) Quantification of the PLA signals shown in panel C. *P < 0.05, ***P < 0.001 (2-tailed Student’s t test).

[4] = test system: murine primary T cells; experiment: ELISA of cytokines in supernatants of anti-CD3/CD28-stimulated murine primary T cells; assay type: cell-based; conditions: anti-CD3 plus anti-CD28
Description: Primary human T cells were freshly isolated and negatively selected from the PBLs of clinical samples using a cocktail of biotin-conjugated anti-CD19, anti-CD14, and anti-CD11b antibodies (BioLegend) on a magnetic cell separation column (Miltenyi Biotec, Bergisch Gladbach, Germany) ([26]). In addition, primary murine T cells were negatively selected from the spleens of mice using magnetically coupled antibodies against CD11b, B220, CD49b, CD235, and TER-119 (Miltenyi Biotec) ([18]).
We further studied whether IL-17A production is abolished by verteporfin in human and murine T cells. We first tested the inhibitory effect of verteporfin in murine T cells stimulated with T-cell receptor (TCR) signaling (anti-CD3 plus anti-CD28 antibodies). […] This reduction is likely due to the inhibition of NF-κB activation ([18]) by the verteporfin treatment. This notion is supported by our published results that TCR-induced TNF-α and IFN-γ levels in T cells are inhibited by IKK-β conditional knockout ([18]). Next, we studied whether verteporfin attenuates IL-17A production using human peripheral blood T cells with stimulation. The levels of T-cell–secreted IL-17A in unstimulated T cells from patients with SLE and RA were enhanced compared with those from healthy controls (Fig. 5B). […] GLK overexpression in T cells selectively induces IL-17A production in Lck-GLK Tg mice ([18]). […] The inhibition of the production of other cytokines by the high-dose but not low-dose verteporfin treatment may be due to a requirement of higher concentration of verteporfin for an efficient inhibition of NF-κB activation.
Figure 5 Verteporfin (C1) blocks IL-17 production of human T cells. A) ELISA of various cytokines in supernatants of murine primary T cells stimulated with anti-CD3 or CD28 and cotreated with C1 (5 or 10 μM) for 3 d. Means ± SD are shown; n = 3/group. B) ELISA of various cytokines in supernatants of human T cells. T cells were stimulated with anti-CD3 or CD28 and cotreated with C1 (1 or 5 μM) for 3 d. HC, healthy control; N.S., not significant. Means ± SD are shown. *P < 0.05, **P < 0.01, ***P < 0.001 (2-tailed Student’s t test).

## verteporfin
[1]
  IL-17A production from in vitro differentiated Th17 cells: inhibited
[1]; listed as Verteporfin
  IL-17A production from in vitro differentiated Th17 cells: inhibits
[2]
  IC50: 43.9 nM
[3]
  GLK signaling in cell lines (NF-κB-driven luciferase activity): efficiently inhibited
[4]; 5 or 10 μM for 3 d
  TCR-induced IL-17A production: drastically abolished
  TCR-induced IL-17B, IL-17E, and IL-17F levels: not significantly decreased
  TCR-induced TNF-α levels: slightly but not significantly reduced
[4]; high-dose 10 μM for 3 d
  TCR-induced IFN-γ levels: significantly inhibited
